The values that follow come from patent US12195490B2, “STRAD-binding agents and uses thereof” (The Regents of the University of California, priority 2020, dated 2025).

pIC50: −log10 of the molar value.

For assay [1], the system named is most sensitive cancer cell line. The assay is described as follows: cell activity: CTG anti-proliferation in most sensitive cancer cell line. Format: cell-based. The note with it: APA analogs.
The target of assay [2] is T1, LKB1 (Homo sapiens, UniProt Q15831+Q7RTN6).
T1 sequence (Q15831 1-433): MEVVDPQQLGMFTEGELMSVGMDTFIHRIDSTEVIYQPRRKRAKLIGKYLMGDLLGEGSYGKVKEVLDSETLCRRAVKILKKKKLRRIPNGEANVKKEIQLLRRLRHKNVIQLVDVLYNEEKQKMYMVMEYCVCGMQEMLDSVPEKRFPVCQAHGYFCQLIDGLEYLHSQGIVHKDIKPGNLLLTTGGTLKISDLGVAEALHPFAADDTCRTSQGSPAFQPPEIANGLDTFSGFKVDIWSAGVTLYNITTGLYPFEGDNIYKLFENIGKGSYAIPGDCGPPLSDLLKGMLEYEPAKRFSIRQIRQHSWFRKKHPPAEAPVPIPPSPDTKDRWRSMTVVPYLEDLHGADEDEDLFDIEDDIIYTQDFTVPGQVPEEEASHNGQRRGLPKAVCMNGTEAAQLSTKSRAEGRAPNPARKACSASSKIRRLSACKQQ
T1 sequence (Q7RTN6 1-431): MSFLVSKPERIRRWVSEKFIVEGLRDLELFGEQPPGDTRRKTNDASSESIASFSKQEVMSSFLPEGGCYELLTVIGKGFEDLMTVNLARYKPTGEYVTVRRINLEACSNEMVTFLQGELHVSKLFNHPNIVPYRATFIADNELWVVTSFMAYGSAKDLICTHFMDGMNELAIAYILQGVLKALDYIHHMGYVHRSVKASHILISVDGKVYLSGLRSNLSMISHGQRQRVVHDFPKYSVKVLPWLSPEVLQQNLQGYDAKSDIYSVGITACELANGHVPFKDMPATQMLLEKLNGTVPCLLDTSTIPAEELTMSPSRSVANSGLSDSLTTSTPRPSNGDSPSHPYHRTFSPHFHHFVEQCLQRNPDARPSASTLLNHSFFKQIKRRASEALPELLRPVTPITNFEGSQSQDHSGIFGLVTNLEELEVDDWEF
T1 sequence (Q9Y376 1-341 partner): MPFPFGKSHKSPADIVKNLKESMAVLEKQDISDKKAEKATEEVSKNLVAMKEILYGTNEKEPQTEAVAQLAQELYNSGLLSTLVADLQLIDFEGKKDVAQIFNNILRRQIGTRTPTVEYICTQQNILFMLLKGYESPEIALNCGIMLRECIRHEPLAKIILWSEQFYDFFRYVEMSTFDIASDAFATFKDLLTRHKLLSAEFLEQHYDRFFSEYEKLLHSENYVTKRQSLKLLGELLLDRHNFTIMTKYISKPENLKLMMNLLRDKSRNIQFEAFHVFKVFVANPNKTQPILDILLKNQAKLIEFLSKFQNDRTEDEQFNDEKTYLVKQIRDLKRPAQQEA
The assay is described as follows: in vitro LKB1 functional activity. The note with it: APA analogs. The assay is classed as biochemical.

`CO[P@@](C)(=O)CS(=O)(=O)c1ccc(NC(=O)c2nc(-c3ccc(C)cc3)cnc2N)cc1` [SU20668-0519, (R)-methyl (4-(3-amino-6-p-tolylpyrazine-2-carboxamido)phenylsulfonyl)methyl(methyl)phosphinate] gave a negative-log IC50 (pIC50) in assay [1] above 5.52. Moreover, the “LKB1 % Act. Increase” value in assay [2] is “A (A=>4000%)”.
On the same counts, the results for `CCOP(=O)(C[S@SP3](=O)(=O)c1ccc(NC(=O)c2nc(-c3ccc(C)cc3)cnc2N)cc1)OCC` [SU20668-0313, diethyl (((4-(3-amino-6-(p-tolyl)pyrazine-2-carboxamido)phenyl)sulfonyl)methyl)phosphonate] are above 5.52 and “C (C=199-1000%)”.
The corresponding values for `CO[P@](C)(=O)CS(=O)(=O)c1ccc(NC(=O)c2nc(-c3ccc(C)cc3)cnc2N)cc1` [SU20668-0520, (S)-methyl (4-(3-amino-6-p-tolylpyrazine-2-carboxamido)phenylsulfonyl)methyl(methyl)phosphinate] are above 5.52 and “A (A=>4000%)”.
With `CCO[P@](=O)(CC)CS(=O)(=O)c1ccc(NC(=O)c2nc(-c3ccc(C)cc3)cnc2N)cc1` [SU20668-0521, (R)-ethyl (4-(3-amino-6-p-tolylpyrazine-2-carboxamido)phenylsulfonyl)methyl(ethyl)phosphinate], the pIC50 in assay [1] was above 5.52. Besides, the “LKB1 % Act. Increase” value in assay [2] is on record as “A (A=>4000%)”.
Take `COP(=O)(CS(=O)(=O)c1ccc(NC(=O)c2nc(-c3ccc(C)cc3)cnc2N)cc1)OC` [SU20668-0329, dimethyl (4-(3-amino-6-p-tolylpyrazine-2-carboxamido)phenylsulfonyl)methylphosphonate]: the negative logarithm of the IC50 (pIC50) in assay [1] was above 5.52. In assay [2], the “LKB1 % Act. Increase” value was “A (A=>4000%)”.
The corresponding values for `CC(=O)NS(=O)(=O)c1ccc(NC(=O)c2nc(-c3ccc(C)s3)cnc2N)cc1` [SU20668-0349, N-(4-(N-acetylsulfamoyl)phenyl)-3-amino-6-(5-methylthiophen-2-yl)pyrazine-2-carboxamide] are 4.30 to 5.52 and “C (C=199-1000%)”.
The corresponding values for `Cc1ccc(-c2cnc(N)c(C(=O)Nc3ccc(S(N)(=O)=O)c(F)c3)n2)cc1` [SU20668-0305, 3-amino-N-(3-fluoro-4-sulfamoylphenyl)-6-p-tolylpyrazine-2-carboxamide] are above 5.52 and “C (C=199-1000%)”.
On the same counts, the results for `CCOP(=O)(CC)CS(=O)(=O)c1ccc(NC(=O)c2nc(-c3ccc(C)cc3)cnc2N)cc1` (stereo not drawn) [SU20668-0515, ethyl (4-(3-amino-6-p-tolylpyrazine-2-carboxamido)phenylsulfonyl)methyl(ethyl)phosphinate] are above 5.52 and “B (B=399-2000%)”.
In turn, `CCO[P@@](=O)(CC)CS(=O)(=O)c1ccc(NC(=O)c2nc(-c3ccc(C)cc3)cnc2N)cc1` [SU20668-0522, (S)-ethyl (4-(3-amino-6-p-tolylpyrazine-2-carboxamido)phenylsulfonyl)methyl(ethyl)phosphinate] gave a pIC50 in assay [1] above 5.52. Besides, the “LKB1 % Act. Increase” value in assay [2] is reported as “B (B=399-2000%)”.
Take `CCOP(=O)(OCC)C(F)S(=O)(=O)c1ccc(NC(=O)c2nc(-c3ccc(C)cc3)cnc2N)cc1` (stereo not drawn) [SU20668-0485]: in assay [1], the pIC50 is above 5.52.
The molecule `CC(=O)N[S@SP3](=O)(=O)c1ccc(NC(=O)c2nc(-c3ccc(C)cc3)cnc2N)cc1` [SU20668-0314, N-(4-(N-acetylsulfamoyl)phenyl)-3-amino-6-p-tolylpyrazine-2-carboxamide] gave a pIC50 in assay [1] of 4.30 to 5.52. Also, the “LKB1 % Act. Increase” value in assay [2] is “C (C=199-1000%)”.
On the same counts, the results for `Cc1ccc(-c2cnc(N)c(C(=O)Nc3ccc(S(=O)(=O)NC4COC4)cc3)n2)cc1` [SU20668-0468, 3-amino-N-(4-(N-oxetan-3-ylsulfamoyl)phenyl)-6-p-tolylpyrazine-2-carboxamide] are above 5.52 and “C (C=199-1000%)”.
On the same counts, the results for `Cc1ccc(-c2cnc(N)c(C(=O)Nc3ccc(S(N)(=O)=O)cc3)n2)cc1` [SU20668-0197, 3-amino-N-(4-sulfamoylphenyl)-6-p-tolylpyrazine-2-carboxamide] are above 5.52 and “B (B=399-2000%)”.
The corresponding values for `CC(=O)NS(=O)(=O)c1ccc(NC(=O)c2nc(-c3cc(F)ccc3C#N)cnc2N)cc1` [SU20668-0371, N-(4-(N-acetylsulfamoyl)phenyl)-3-amino-6-(2-cyano-5-fluorophenyl)pyrazine-2-carboxamide] are 4.30 to 5.52 and “A (A=>4000%)”.
`CCOP(C)(=O)CS(=O)(=O)c1ccc(NC(=O)c2nc(-c3ccc(C)cc3)cnc2N)cc1` (stereo not drawn) [SU20668-0472, ethyl (4-(3-amino-6-p-tolylpyrazine-2-carboxamido)phenylsulfonyl)methyl(methyl)phosphinate]: the negative logarithm of the IC50 (pIC50) in assay [1] is above 5.52. In addition, the “LKB1 % Act. Increase” value in assay [2] is “A (A=>4000%)”.
Take `CC(=O)NS(=O)(=O)c1ccc(NC(=O)c2nc(-c3ccc(CO)cc3)cnc2N)cc1` [SU20668-0348, N-(4-(N-acetylsulfamoyl)phenyl)-3-amino-6-(4-(hydroxymethyl)phenyl)pyrazine-2-carboxamide]: the “LKB1 % Act. Increase” value in assay [2] is on record as “C (C=199-1000%)”.
On to `CS(=O)(=O)c1ccc(NC(=O)c2nc(-c3ccc(S(C)(=O)=O)cc3)cnc2N)cc1` [SU20668-0317, methyl 3-amino-N,6-bis(4-(methylsulfonyl)phenyl)pyrazine-2-carboxamide], for which the “LKB1 % Act. Increase” value in assay [2] is “C (C=199-1000%)”.
With `Cc1ccc(-c2cnc(N)c(C(=O)Nc3ccc(S(=O)(=O)CC4COC4)cc3)n2)cc1` [SU20668-0494, 3-amino-N-(4-(oxetan-3-ylmethylsulfonyl)phenyl)-6-p-tolylpyrazine-2-carboxamide], the pIC50 in assay [1] is above 5.52. Moreover, the “LKB1 % Act. Increase” value in assay [2] was “A (A=>4000%)”.
With `Cc1ccc(-c2cnc(N)c(C(=O)Nc3ccc(S(=O)(=O)NC4(C)COC4)cc3)n2)cc1` [SU20668-0510, 3-amino-N-(4-(N-(3-methyloxetan-3-yl)sulfamoyl)phenyl)-6-p-tolylpyrazine-2-carboxamide], in assay [2], the “LKB1 % Act. Increase” value is reported as “B (B=399-2000%)”.
The same measure, in the same setting: in the case of `Cc1ccc(-c2cnc(N)c(C(=O)Nc3ccc(S(=O)(=O)NC(=O)CCOCc4ccccc4)cc3)n2)cc1` [SU20668-0368, 3-amino-N-(4-(N-(3-(benzyloxy)propanoyl)sulfamoyl)phenyl)-6-p-tolylpyrazine-2-carboxamide] it was “D (D=<1000%)”; in that of `CCOP(C)(=O)COc1ccc(NC(=O)c2nc(-c3ccc(C)cc3)cnc2N)cc1` (stereo not drawn) [SU20668-0476], “D (D=<1000%)”; in that of `Cc1ccc(-c2cnc(N)c(C(=O)Nc3ccc(S(C)(=O)=O)cc3)n2)cc1` [SU20668-0293, 3-amino-N-(4-(methylsulfonyl)phenyl)-6-p-tolylpyrazine-2-carboxamide], “C (C=199-1000%)”.
Still for that read-out and setting: next, `CC(=O)NS(=O)(=O)c1ccc(NC(=O)c2nc(-c3ccc(CN(C)C)cc3)cnc2N)cc1` [SU20668-0339, N-(4-(N-acetylsulfamoyl)phenyl)-3-amino-6-(4-((dimethylamino)methyl)phenyl)pyrazine-2-carboxamide]: “C (C=199-1000%)”; `COc1cc(F)c(-c2cnc(N)c(C(=O)Nc3ccc(S(=O)(=O)NC(C)=O)cc3)n2)c(F)c1` [SU20668-0375, N-(4-(N-acetylsulfamoyl)phenyl)-3-amino-6-(2,6-difluoro-4-methoxyphenyl)pyrazine-2-carboxamide]: “D (D=<1000%)”.
